{"source": "patent US20150174123A1", "about": "“OXABICYCLOHEPTANES AND OXABICYCLOHEPTENES FOR THE TREATMENT OF REPERFUSION INJURY” (priority 2012, published 2015)", "key": {"heart": {"tested_on": "heart", "test": "Example 5: tissue damage from reperfusion injury in the heart after myocardial infarction", "type": "in vivo", "conditions": "following myocardial infarction; no data given", "method": "(§1) LB100, LB102 or LB107 are tested in an animal model of cardiac ischemia-reperfusion injury."}, "[1]": {"test": "Example 5: sepsis, vascular leakage and endothelial dysfunction from reperfusion injury", "type": "in vivo", "conditions": "subject suffering from sepsis; no data given"}, "Akt [2]": {"tested_on": "Akt", "test": "Example 3: phosphorylation and activation of Akt in mammalian cells", "type": "cell-based", "conditions": "mammalian cells incl. cardiac, brain, endothelial cells; no data given"}, "PP2A [3]": {"biological_target": "PP2A (Homo sapiens, UniProt P67775)", "sequence (P67775 whole entry)": "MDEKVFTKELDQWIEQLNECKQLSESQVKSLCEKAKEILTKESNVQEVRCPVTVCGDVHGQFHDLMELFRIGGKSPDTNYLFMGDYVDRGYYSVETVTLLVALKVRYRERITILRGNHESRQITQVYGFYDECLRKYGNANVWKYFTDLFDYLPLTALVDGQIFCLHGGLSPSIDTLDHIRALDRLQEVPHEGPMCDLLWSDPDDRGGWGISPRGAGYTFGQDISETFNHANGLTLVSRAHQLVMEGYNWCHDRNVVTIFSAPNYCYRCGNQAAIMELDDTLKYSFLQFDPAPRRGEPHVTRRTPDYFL", "conditions": "cited from earlier work; for PP2A inhibition: statement in words"}, "Akt [4]": {"tested_on": "Akt", "conditions": "Lu et al. 2009; US patent; cited from earlier work"}, "mammalian tissue": {"tested_on": "mammalian tissue", "test": "Example 4: reperfusion injury in mammalian tissue that has suffered an ischemia", "type": "in vivo", "conditions": "mammalian tissue after ischemia; no data given", "method": "as §1\nThe mammalian tissue includes, but is not limited to, cardiac tissue, brain tissue and endothelial tissue."}, "PP1": {"tested_on": "PP1", "conditions": "Lu et al. 2009(a); cited from earlier work"}, "PP2A [5]": {"tested_on": "PP2A", "conditions": "xenografts of human tumor cells in mice, given parenterally; cited from earlier work"}, "PP2A [6]": {"tested_on": "PP2A", "conditions": "in vitro in human cancer cells; cited from earlier work"}, "cancer cells": {"tested_on": "cancer cells", "conditions": "mouse model systems; cited from earlier work"}, "[7]": {"test": "Toxicokinetic studies in dogs", "type": "in vivo", "conditions": "doses known to inhibit PP2A in tissue of rodents"}, "[8]": {"tested_on": "distal end of a flap graft", "test": "Survival of tissue at the distal end of a skin flap graft (necrosis by planimetry and photographs)", "type": "in vivo, in-bred rats", "method": "An ALZET pump (model 1007D, reservoir volume 100 ul) was implanted subcutaneously under anesthesia subcutaneously four days before creating a skin flap again under anesthesia. The pump in control animals contained sodium chloride and the pump in treated animals contained 0.55 mg of LB-100. The pump delivers 0.5 ul/hour+/−10% so each animal received about 12 ul/day for 8 days, 4 days prior to raising the graft and for the first 4 days after creation of the graft. There were 10 animals in each group.\nThe animals were sacrificed on day 7 following creation of the flap, the amount of necrosis at the end of the flap was measured by planimetry. The area of necrosis at the end of the flap was divided by total surface area of the entire flap and expressed as a percentage.\nThe visual appearance of the flaps was also inspected. FIGS. 1a-j show control rats 1-10 on day 7 and FIGS. 2a-j show treatment rats 1-10 on day 7. The treatment rats had received LB-100."}, "[9]": {"test": "Toxicokinetic studies in rats", "type": "in vivo", "conditions": "doses known to inhibit PP2A in tissue of rodents"}, "pig cells": {"tested_on": "pig cells", "conditions": "pig cells in vitro; cited from earlier work"}, "rabbit cells": {"tested_on": "rabbit cells", "conditions": "rabbit cells in vitro; cited from earlier work"}, "[10]": {"tested_on": "mouse skeletal muscle endothelial cells", "conditions": "cited from earlier work"}, "pig myocardium": {"tested_on": "pig myocardium", "conditions": "cited from earlier work"}, "[11]": {"conditions": "young and aged rats; cited from earlier work"}, "endothelial barrier": {"tested_on": "endothelial barrier", "conditions": "septic insult; concentration that inhibits PP2A activity; cited from earlier work"}, "[12]": {"conditions": "given orally to mice; cited from earlier work"}, "[13]": {"tested_on": "cardiac tissue (myocardium)", "conditions": "given before or after onset of oxygen deprivation, cited from earlier work"}}, "note": "Values joined by “and” are separate entries in the source; they are usually repeats but may differ in a detail not shown here. Identical values can stand only once. “Also recorded” adds a separate entry of the source. Like-named read-outs stand apart in the source and are kept apart here."}
{"smiles": "CC(C)(C)OC(=O)N1CCN(C(=O)C2C(C(=O)O)[C@H]3CC[C@@H]2O3)CC1", "note": "(some centres unmarked) [LB-102]", "values": [{"measurement": "Tissue damage associated with reperfusion injury in the heart", "setting": "heart", "result": "reduce tissue damage; also recorded: prevent tissue damage"}, {"measurement": "Endothelial dysfunction associated with reperfusion injury", "setting": "[1]", "result": "reduce endothelial dysfunction"}, {"measurement": "Vascular leakage associated with reperfusion injury", "setting": "[1]", "result": "reduce vascular leakage"}, {"measurement": "Activation of Akt", "setting": "Akt [2]", "result": "increase activation of Akt"}, {"measurement": "Dephosphorylation and inactivation of Akt by PP2A", "setting": "Akt [2]", "result": "reduce dephosphorylation and inactivation of Akt"}, {"measurement": "Phosphorylation of Akt", "setting": "Akt [2]", "result": "increase phosphorylation of Akt"}, {"measurement": "IC50", "setting": "PP2A [3]; read-out: IC50 PP2A, Lu et al. 2009(a)", "result": "~0.4", "unit": "µM"}, {"measurement": "PP2A inhibition", "setting": "PP2A [3]", "result": "effective inhibitors of PP2A"}, {"measurement": "Phosphorylation of Akt", "setting": "Akt [4]", "result": "increased phosphorylation of Akt"}, {"measurement": "Reperfusion injury", "setting": "mammalian tissue", "result": "reduce reperfusion injury"}, {"measurement": "IC50", "setting": "PP1", "result": "~8", "unit": "µM"}, {"measurement": "PP2A inhibition", "setting": "PP2A [5]", "result": "inhibitors of PP2A"}, {"measurement": "PP2A inhibition", "setting": "PP2A [6]", "result": "inhibitors of PP2A"}, {"measurement": "Growth of cancer cells", "setting": "cancer cells", "result": "inhibit the growth of cancer cells"}]}
{"smiles": "CN1CCN(C(=O)C2C(C(=O)O)[C@H]3CC[C@@H]2O3)CC1", "note": "(some centres unmarked) [LB-100]", "values": [{"measurement": "Tissue damage associated with reperfusion injury in the heart", "setting": "heart", "result": "reduce tissue damage; also recorded: prevent tissue damage"}, {"measurement": "Endothelial dysfunction associated with reperfusion injury", "setting": "[1]", "result": "reduce endothelial dysfunction"}, {"measurement": "Vascular leakage associated with reperfusion injury", "setting": "[1]", "result": "reduce vascular leakage"}, {"measurement": "Activation of Akt", "setting": "Akt [2]", "result": "increase activation of Akt"}, {"measurement": "Dephosphorylation and inactivation of Akt by PP2A", "setting": "Akt [2]", "result": "reduce dephosphorylation and inactivation of Akt"}, {"measurement": "Phosphorylation of Akt", "setting": "Akt [2]", "result": "increase phosphorylation of Akt"}, {"measurement": "PP2A inhibition", "setting": "PP2A [3]", "result": "effective inhibitors of PP2A"}, {"measurement": "Phosphorylation of Akt", "setting": "Akt [4]", "result": "increased phosphorylation of Akt"}, {"measurement": "Reperfusion injury", "setting": "mammalian tissue", "result": "reduce reperfusion injury"}, {"measurement": "Toxicity", "setting": "[7]", "result": "acceptable and reversible toxicity"}, {"measurement": "PP2A inhibition", "setting": "PP2A [5]", "result": "inhibitors of PP2A"}, {"measurement": "Average area of necrosis (%)", "setting": "[8]; average of 10 treatment rats, day 7, control average 41.0627243", "result": 31.97, "unit": "%"}, {"measurement": "Visual appearance of flaps (photographs)", "setting": "[8]; day 7, distal ends of the flap, vs control rats", "result": "less extensive necrosis"}, {"measurement": "Necrosis (area by planimetry)", "setting": "[8]; individual treatment rats 1-10, day 7 after flap creation, pump with 0.55 mg LB-100", "result": "64147 and 66886 and 77327 and 91515 and 112275 and 55473 and 63777 and 66144 and 37181 and 77089"}, {"measurement": "Area of necrosis at the end of the flap divided by total surface area of the flap (%)", "setting": "[8]; individual treatment rats 1-10, day 7 after flap creation, pump with 0.55 mg LB-100, about 12 ul/day for 8 days", "result": "31.96% and 28.88% and 30.7% and 39.47% and 40.43% and 30.66% and 33.77% and 25.95% and 24.03% and 33.9%"}, {"measurement": "Mean decrease in extent of necrosis in treated animals", "setting": "[8]; treated vs control rats, planimetry, day 7", "result": 22, "unit": "%"}, {"measurement": "PP2A inhibition", "setting": "PP2A [6]", "result": "inhibitors of PP2A"}, {"measurement": "Toxicity", "setting": "[9]", "result": "acceptable and reversible toxicity"}, {"measurement": "Growth of cancer cells", "setting": "cancer cells", "result": "inhibit the growth of cancer cells"}]}
{"smiles": "COC[C@@H]([C@H](O)[C@H](O)C(=O)NCC[C@H](C)c1nc(/C=C/C[C@@H]2O[C@]3(C[C@@H](O)[C@@H]2C)O[C@H]([C@H](C[C@H](O)[C@H](C)[C@H](O)[C@H](C)/C=C(C)/C(C)=C/C=C/C(C)=C\\C#N)OC)[C@H](OP(=O)(O)O)C3(C)C)co1)N(C)C", "note": "[calyculin A]", "values": [{"measurement": "Protection from injury", "setting": "pig cells", "result": "afforded protection from injury"}, {"measurement": "Protection from injury", "setting": "rabbit cells", "result": "afforded protection from injury"}]}
{"smiles": "C=C1[C@@H](O)[C@@H]2O[C@]3(CC[C@H](/C=C/[C@@H](C)[C@@H]4CC(C)=C[C@@]5(O[C@H](C[C@@](C)(O)C(=O)O)CC[C@H]5O)O4)O3)CC[C@H]2O[C@@H]1[C@@H](O)C[C@H](C)[C@H]1O[C@@]2(CCCCO2)CC[C@H]1C", "note": "[okadaic acid]", "values": [{"measurement": "Endothelial barrier function", "setting": "[10]", "result": "preserved endothelial barrier function"}, {"measurement": "Activity of phosphatases, especially PP2A, in heart tissue", "setting": "pig myocardium; heart tissue infused with the inhibitor", "result": "decreased"}, {"measurement": "Protection of myocardium against ischemia", "setting": "pig myocardium; pig, in vivo model", "result": "protected pig myocardium against ischemia"}, {"measurement": "Cellular death following induced MI", "setting": "[11]", "result": "reduced cellular death"}, {"measurement": "Endothelial barrier disruption", "setting": "endothelial barrier", "result": "decreases endothelial barrier disruption"}]}
{"smiles": "COC(=O)C1C(C(=O)N2CCN(C)CC2)[C@@H]2CC[C@H]1O2", "note": "(stereo in doubt) [LB-107, 3-(4-Methylpiperazine-1-carbonyl)-7-oxa-bicyclo[2,2,1]heptane-2-carboxylic acid methyl ester]", "values": [{"measurement": "Tissue damage associated with reperfusion injury in the heart", "setting": "heart", "result": "reduce tissue damage; also recorded: prevent tissue damage"}, {"measurement": "Endothelial dysfunction associated with reperfusion injury", "setting": "[1]", "result": "reduce endothelial dysfunction"}, {"measurement": "Vascular leakage associated with reperfusion injury", "setting": "[1]", "result": "reduce vascular leakage"}, {"measurement": "Activation of Akt", "setting": "Akt [2]", "result": "increase activation of Akt"}, {"measurement": "Dephosphorylation and inactivation of Akt by PP2A", "setting": "Akt [2]", "result": "reduce dephosphorylation and inactivation of Akt"}, {"measurement": "Phosphorylation of Akt", "setting": "Akt [2]", "result": "increase phosphorylation of Akt"}, {"measurement": "PP2A inhibition", "setting": "PP2A [3]", "result": "effective inhibitors of PP2A"}, {"measurement": "Reperfusion injury", "setting": "mammalian tissue", "result": "reduce reperfusion injury"}, {"measurement": "Oral activity", "setting": "[12]", "result": "active when given orally"}]}
{"smiles": "C[C@@](O)(/C=C/[C@H]1CC=CC(=O)O1)[C@@H](C[C@@H](O)\\C=C/C=C\\C=C\\CO)OP(=O)(O)O", "note": "[fostriecin]", "values": [{"measurement": "Protection from injury", "setting": "pig cells", "result": "afforded protection from injury"}, {"measurement": "Size of infarction of cardiac tissue / injury", "setting": "[13]", "result": "minimizes the size of infarction"}, {"measurement": "Size of infarction of cardiac tissue / injury", "setting": "[13]; listed as FOS", "result": "reduces injury"}, {"measurement": "Protection from injury", "setting": "rabbit cells", "result": "afforded protection from injury"}]}
